Assay results as given in US5529989A (Arizona Board of Regents acting on behalf of Arizona State …, priority 1995, dated 1996).
Converted amounts (≈) assume the structure as drawn. “Also recorded” adds a separate entry of the source.

Columns and labels:
[1] = stability of the phosphoric acid; assay type: physicochemical; conditions: isolated after hydrogenolysis
water solubility = assay type: physicochemical
[2] = test system: murine P388 lymphocytic leukemia cell line; assay: growth inhibition of murine P388 lymphocytic leukemia cell line in vitro; assay type: cell-based
Experimental: (§1) There is no mathematical difference between ED50 and GI50, which are both calculated using the same formula. The only difference is historical usage.
(§2) Each drug is tested at five (5) doses: 100--10--1--0.1--0.01 μg/ml. Percent Growths are calculated for each dose. […] The log of the dose is used during the regression computation.
(§3) At the start of an experiment, cells from the in vitro cell cultures are inoculated into the appropriate tubes or microtiter plates. One set of control tubes/plates is immediately counted to determine the number of cells at the start of the experiment. This is the "baseline count" or "Tzero reading". At the end of the experiment (48 hours later) a second set of control tubes/plates is analyzed to determine the "Control Growth" value. The growth (or death) of cells relative to the initial quantity of cells is used to define the "Percent of Growth".

[3] = test system: U.S. National Cancer Institute's (NCI) panel of sixty human cancer cell lines; assay: cancer cell growth inhibition, NCI panel of sixty human cancer cell lines; assay type: cell-based
Experimental: as §1
Total Growth Inhibition ("TGI"), is the drug dose needed to yield zero percent growth, i.e., just as many cells at the end of the experiment as were present in the beginning. Whether just as many cells were killed as were produced (steady state), or no growth occurred (total inhibition), cannot be distinguished.
as §2, §3

cancer cell = cancer cell growth inhibitory comparison of pancratistatin with its phosphate prodrug; assay type: cell-based; conditions: versus pancratistatin (1)
Experimental: as §1, §2, §3

[4] = test system: murine P388 lymphocytic leukemia cell line; conditions: from U.S. Pat. No. 4,985,436, cited from earlier work
[5] = test system: murine P388 lymphocytic leukemia; conditions: 0.75-12.5 mg/kg host body weight, from U.S. Pat. No. 4,985,436; cited from earlier work
[6] = test system: M5074 murine ovary sarcoma; conditions: 0.38 to 3.0 mg active reagent/kg host body weight; from U.S. Pat. No. 4,985,436; cited from earlier work
[7] = test system: M5074 murine ovary sarcoma; conditions: 6 mg/kg host body weight; from U.S. Pat. No. 4,985,436; cited from earlier work
[8] = test system: experimental melanoma and ovary carcinoma; conditions: cited from earlier work
RNA viruses = conditions: cited from earlier work
[9] = cited from earlier work

## CC(=O)O[C@@H]1[C@@H](OC(C)=O)[C@H](OC(C)=O)[C@@H]2c3cc4c(c(OP(=O)(O)O)c3C(=O)N[C@H]2[C@@H]1OC(C)=O)OCO4 [4b, 7-phosphoryl-pancratistatin tetraacetate]
[1]
  stability: unstable

## O=C1N[C@H]2[C@H](O)[C@H](O)[C@@H](O)[C@H](O)[C@@H]2c2cc3c(c(OP(=O)(O)O)c21)OCO3 [compound (5), Disodium 7-Phosphoryl-Pancratistatin]
Water solubility
  solubility: > 230 mg/mL
[2]; Mus musculus, 48 h, murine P388 lymphocytic leukemia cell line, dose needed to reduce the percent growth to 50%, read-out: ED50 (the source's name)
  GI50: 0.032 µg/mL
[2]; murine P388 lymphocytic leukemia, versus pancratistatin (1)
  ED50 compared with pancratistatin (1): essentially comparable to that found for pancratistatin (1)
[3]
  direct comparison of phosphate (5) and pancratistatin (1): comparable results for both compounds
Cancer cell
  cancer cell growth inhibition compared with pancratistatin (1): same cancer cell growth inhibition as pancratistatin (1); also recorded: very comparable results

## O=C1N[C@H]2[C@H](O)[C@H](O)[C@@H](O)[C@H](O)[C@@H]2c2cc3c(c(O)c21)OCO3 [pancratistatin]
[3]
  direct comparison of phosphate (5) and pancratistatin (1): comparable results for both compounds
[4]; P388 in vitro cell line, 2880 min
  ED50: 0.001 µg/mL (≈ 3.07 nM)
[4]
  inhibition of growth of P388 in vitro cell line (in words): markedly inhibited growth
[5]
  life extension: 38-106%
[6]
  life extension: 53% to 84
[7]
  cure rate: 50%
[8]
  activity against experimental melanoma and ovary carcinoma: potent activity
RNA viruses
  activity against a range of RNA viruses: activity against a range of RNA viruses
[9]
  solubility in water (in words): at best sparingly soluble in water
